Test results: patent US5952296A, “Method of using relaxin as therapeutic or preventing agent” (priority 1993, dated 1999)
Entries after “also recorded” stand apart in the source; their conditions may differ. No end group written: not given here.

Experiments:
[1] = test system: mesenteric artery of spontaneously hypertensive rats; details: two days infusion; cited from earlier work
[2] = test system: male rats; assay: Plasma hemostasis factors, circulating platelets and megacaryocytes in male rats injected intraperitoneally with RLX; assay type: in vivo, rat
Procedure: A second series of experiments was performed in male rats injected intraperitoneally with RLX and sacrificed 20 minutes later. Before sacrifice, blood and plasma samples were collected for studying plasma hemostasis factors and number of circulating platelets; upon sacrifice, spleen specimens were taken for studying the morphology of megacaryocytes.

[3] = test system: rat hearts, isolated and perfused in vitro; assay: Coronary flow in isolated rat hearts perfused in a Langendorff apparatus; details: RLX 30 ng/ml in perfusion fluid for 20 minutes or as bolus into the aortic cannula; rat heart (FIG. 1A)
Procedure: (§1) 1-a The coronary system was deemed a suitable model for studying the influence of RLX on dilation of blood vessels. Rat and guinea pig hearts, isolated and perfused in vitro in a Langendorff apparatus, were used to evaluate whether RLX causes changes in the coronary flow. After 30 minutes stabilization, in some experiments RLX (30 ng/ml) was added to the perfusion fluid and perfusion lasted for 20 minutes. In other experiments,RLX (30 ng/ml) was injected as a bolus into the aortic cannula. The perfusates were collected and the coronary flow determined. […] The percentage of basal flow variation is depicted versus time. In these diagrams (as well as in the next ones) values are expressed as mean ± SE (standard error). Statistic analyses were done calculating the Student's test (P), whose value is shown in the diagrams.

[4] = test system: isolated platelets from human volunteers and rabbits; assay: Aggregation of isolated platelets incubated with RLX and stimulated with proaggregants; assay type: cell-based, human and rabbit
Procedure: A first series of experiments was carried out on isolated platelets from human volunteers and rabbits, incubated with RLX and then stimulated with proaggregants.
This effect was concentration-relatedand attained a maximum of 80% inhibition with 100 ng/mL RLX.

[5] = test system: perfused guinea pig hearts; assay: Nitric oxide (nitrite) production and histamine release in perfused guinea pig hearts
Procedure: To clarify the mechanisms of action of RLX on dilation of coronary vessels, nitric oxide (NO) production and histamine release were assayed in the perfused guinea pig hearts. NO, which is known to be a powerful vasodilatory agent, was measured by determination of nitrites (stable end-products of NO metabolism) in the perfusates. In some experiments, N^W -monomethyl L-arginine (MeArg), a NO-synthase inhibitor, was added to the perfusion fluid before giving RLX as a bolus; in other experiments,guinea pigs were pretreated with E.coli lipopolysaccharide (LPS), an inducer of NO-synthase activity before heart isolation and perfusion. […] This was further confirmed by the experiments with MeArg and LPS, drugs that blunted and enhanced the RLX-induced increase in the coronary flow, respectively (FIG. 2).

[6] = test system: atrial myocardiocytes; assay: ANP secretion from atrial myocardiocytes of rats after intraperitoneal RLX; assay type: in vivo, rat
Procedure: 3-a ANP secretion was studied in rats following intraperitoneal administration of 10 μg RLX. It is known that atrial myocardiocytes have an endocrine function, being able to synthesize and release a peptide, called atrial natriuretic peptide (ANP) that, besides its firstly recognized effect in stimulating natriuresis, has other properties such as a negative action on blood pressure due to a decrease in the vascular tone and a shift of the plasma fluid in the interstitial compartment. A possible relationship has therefore been searched for between RLX and ANP by evaluating the amount of immunoreactive ANP and the ultrastructural features of atrial myocardiocytes of rats upon RLX treatment. […] No appreciable changes were found in the extension of the ergastoplasm and Golgi apparatus. […] Determinations of ANP content in rat atria homogenates by RIA before and after in vivo administration of RLX are in agreement with the EM findings.

[7] = test system: BASM cells; assay: Bovine aorta smooth muscle (BASM) cells cultured in vitro: actin cytoskeleton and intracellular cGMP; assay type: cell-based; details: for increase in intracellular cGMP levels: BASM cells
Excerpt: 1-b Smooth muscle cells of the vascular wall obtained from bovine aorta (BASM) and cultured in vitro are a suitable in vitro model for understanding the mode of action of RLX on blood vessels.
[…] RLX caused a striking concentration-related increase in intracellular cGMP levels (400% and 900% over the values of the untreated cultures).

[8] = test system: deep artery of the penis; assay: Blood flow in the deep artery of the penis by echo-doppler after injection into the cavernous bodies; assay type: in vivo, human
Procedure: 1-d The blood flow in the penis is influenced by local NO production. Based on the ability of RLX to stimulate NO synthesis, the effect of the peptide on the blood flow in the deep artery of the penis was investigated. RLX (sterilized by microfiltration) was injected into the cavernous bodies of 4 human normal volunteers at a dose of 10 ng, and the blood flow measured by an echo-doppler Acuson 128, 1-6 minutes after the injection. […] In FIG. 5 the echo-doppler images are reported, showing the flow under normal conditions (diagram A), 1 min. after RLX injection (diagram B) and 5 min. after RLX injection (diagram C).

[9] = test system: heart atria; details: Osheroff et al.; cited from earlier work
[10] = Blood osmolality and sodium concentration in rats after RLX; assay type: in vivo, rat; details: rats after RLX (from 142±4 before)
[11] = test system: isolated serosal rat and guinea pig MCs and rat mesenteric MCs; assay: Mast cell histamine release, degranulation and intracellular Ca2+; assay type: cell-based; details: for calcium-ionophore-induced and anaphylactic histamine release: mast cells stimulated by ionophore or sensitized by allergen
Excerpt: 1-c Mast cells (MCs) are known to produce and release vasoactive substances. It has therefore been investigated whether RLX also exerts its vasodilatory action by influencing MC function. […] This effect is mediated by a stimulation of NO production. In fact, the RLX-induced depression of histamine release evoked by calcium ionophore was prevented by MeArg and potentiated by SOD. Moreover, RLX blunted the rise in the intracellular Ca^2+ levels evoked by calcium ionophore in a concentration-related fashion (41% decrease with 10 ng/mL RLX and 97% decrease with 100 ng/mL RLX). From these findings, it emerges that the vasodilatory action of RLX is not due to histamine release by MCs but, rather, to production of the vasodilatory agent NO, in keeping with its effect in the coronary system. The above results are summarized in the diagrams A and B in FIG. 4.
The degree of inhibition was the function of the dose of relaxin being used.

[12] = Cholesterol and triglycerides in peripheral blood serum; assay type: in vivo; details: peripheral blood serum after RLX administration
[13] = test system: guinea pig hearts, isolated and perfused in vitro; assay: Coronary flow in isolated guinea pig hearts perfused in a Langendorff apparatus
Procedure: as §1
To clarify the mechanisms of action of RLX on dilation of coronary vessels, nitric oxide (NO) production and histamine release were assayed in the perfused guinea pig hearts. NO, which is known to be a powerful vasodilatory agent, was measured by determination of nitrites (stable end-products of NO metabolism) in the perfusates. […]

**Q.** With “rat RLX: rat relaxin infused for two days in a cited 1989 study (Relaxin B chain RVSEEWMDQVIQVCGRGYARAWIEVCGASVGRLAL; Relaxin A chain QSGALLSEQCCHIGCTRRSIAKLC; ends and bridges not checked; cysteine pairing not given here; UniProt P01347 23-57; P01347 163-186, looked up)” as the compound, how does the “vasoconstrictive effects of norepinephrine and vasopressin” value [1] read?
**A.** blunted

**Q.** For relaxin [RLX], which “F 1 + 2” value ([2]; rat plasma, RLX-Treated) is on record?
**A.** 0.028 ± 0.01 nM/mL

**Q.** What about the PT ([2]; rat plasma, RLX-Treated) of the same compound?
**A.** 15.1 ± 0.5 s

**Q.** And the aPTT ([2]; rat plasma, RLX-Treated)?
**A.** 19 ± 2.5 s

**Q.** And the “tPA Ag” value ([2]; rat plasma, RLX-Treated)?
**A.** 0.52 ± 0.1 ng/mL

**Q.** And the Fibrinogen ([2]; rat plasma, RLX-Treated, 20 minutes after intraperitoneal injection)?
**A.** 185 ± 26 mg/dL

**Q.** What about the tPA activity ([2]; rat plasma, RLX-Treated, P < 0.001) of the same compound?
**A.** 0.37 ± 0.03 U/mL

**Q.** What about the PAI-1 activity ([2]; rat plasma, RLX-Treated, P < 0.05) of the same compound?
**A.** 11.7 ± 0.7 U/mL

**Q.** And the “coagulation factors such as fibrinogen and prothrombin fragments F1+2” value ([2]; rats)?
**A.** slight decrease

**Q.** And the “plasma levels of tPA and PAI-1” value ([2]; rats)?
**A.** significant, concentration-dependant increase

**Q.** And the “number of circulating platelets” value ([2]; rats, in vivo)?
**A.** reduction in the number of circulating platelets

**Q.** What about the coronary flow [3] of the same compound?
**A.** increases significantly

**Q.** What about the “maximum inhibition of platelet aggregation induced by proaggregants” value ([4]; 100 ng/mL RLX) of the same compound?
**A.** 80%

**Q.** What about the “thromboxane production in platelets” value ([4]; FIG. 7) of the same compound?
**A.** inhibition of thromboxane production

**Q.** What about the “endogenous NO synthesis in platelets” value ([4]; FIG. 8) of the same compound?
**A.** stimulation of endogenous NO synthesis

**Q.** What about the “intracellular cGMP in platelets” value ([4]; FIG. 9) of the same compound?
**A.** rise in intracellular cGMP

**Q.** And the “cytosolic Ca2+ in platelets” value ([4]; FIG. 10)?
**A.** decrease of cytosolic Ca^2+

**Q.** What about the “platelet ultrastructure during aggregation” value ([4]; ultrastructural examination) of the same compound?
**A.** hinders the conformational modifications and granule exocytosis

**Q.** What about the “amount of histamine in the perfusates” value [5] of the same compound?
**A.** significantly reduced

**Q.** And the “nitrite amounts in the perfusates (NO production)” value ([5]; versus basal value)?
**A.** two-fold increase over the basal value

**Q.** And the “amount of immunoreactive ANP and number of ANP-storing granules in atrial myocardiocytes” value ([6]; rats, 10 μg RLX intraperitoneal, twenty minutes after administration)?
**A.** strongly decreased

**Q.** What about the “secretion of ANP from the atriocytes” value ([6]; summary statement) of the same compound?
**A.** inhibit or, depending on the dose, totally suppress

**Q.** What about the “increase in intracellular cGMP levels” value ([7]; 10 ng/mL RLX for 1 hour) of the same compound?
**A.** 400 % over the values of the untreated cultures

**Q.** And the “increase in intracellular cGMP levels” value ([7]; 100 ng/mL RLX for 1 hour)?
**A.** 900 % over the values of the untreated cultures

**Q.** What about the “actin cytoskeleton (immunocytochemistry with anti-actin antibodies)” value ([7]; BASM cells incubated for 4 hours with 100 ng/mL RLX) of the same compound?
**A.** induces changes in the actin cytoskeleton

**Q.** And the “blood flow in the deep artery of the penis” value ([8]; 10 ng into the cavernous bodies, 4 human normal volunteers, 1-6 minutes after injection, versus basal flow)?
**A.** striking increase

**Q.** What about the erection ([8]; two subjects, 5-10 min. after RLX injection) of the same compound?
**A.** erection was also observed

**Q.** And the “binding to heart atria” value [9]?
**A.** binding of RLX to heart atria

**Q.** What about the “rhythm and contractions of the in vitro isolated atria” value [9] of the same compound?
**A.** increase of the rhythm and contractions

**Q.** And the sodium concentration [10]?
**A.** 136±2 mEq/1

**Q.** What about the “decrease of the rise in intracellular Ca2+ levels evoked by calcium ionophore” value ([11]; 10 ng/mL RLX, mast cells) of the same compound?
**A.** 41%

**Q.** What about the “decrease of the rise in intracellular Ca2+ levels evoked by calcium ionophore” value ([11]; 100 ng/mL RLX, mast cells) of the same compound?
**A.** 97%

**Q.** What about the MC degranulation ([11]; mast cells) of the same compound?
**A.** inhibits

**Q.** And the “calcium-ionophore-induced and anaphylactic histamine release” value [11]?
**A.** inhibits

**Q.** And the “calcium-ionophore-induced and anaphylactic histamine release” value ([11]; listed as relaxin)?
**A.** inhibit or, depending on the dose, totally suppress; also recorded: greatly inhibiting

**Q.** And the “basal liberation of histamine by mastocytes” value ([11]; unstimulated mastocytes)?
**A.** no effect whatsoever

**Q.** And the “reduction of cholesterol concentration” value [12]?
**A.** up to 38%

**Q.** What about the “reduction of triglycerides concentration” value [12] of the same compound?
**A.** ≤ 55%

**Q.** And the coronary flow ([13]; RLX 30 ng/ml in perfusion fluid for 20 minutes or as bolus into the aortic cannula, guinea pig heart (FIG. 1B))?
**A.** increases significantly

**Q.** For CNC(=N)NCCC[C@H](N)C(=O)O [MeArg, N^W -monomethyl L-arginine, reference compound], which “effect on the RLX-induced increase in cGMP” value ([7]; pretreatment of BASM cells) is on record?
**A.** depression

**Q.** What about the “effect on the RLX-induced depression of histamine release evoked by calcium ionophore” value ([11]; mast cells) of the same compound?
**A.** prevented

**Q.** What about the “effect on the RLX-induced increase in the coronary flow” value ([13]; MeArg added to perfusion fluid before RLX bolus, LPS pretreatment of guinea pigs before heart isolation) of the same compound?
**A.** blunted
